Measured values as given in patent US20250346550A1, “METHODS OF MODULATING ENDONUCLEASE G USING RESVERATROL AND ITS DERIVATIVES” (THE REGENTS OF THE UNIVERSITY OF COLORADO A BODY CORPORATE, priority 2022, published 2025).

Columns and labels:
Assay type in all cases: in vivo, C. elegans
[1] = test system: α-synuclein-induced dopaminergic neuronal death in baIn11 animals; assay: α-synuclein-based Parkinson's Disease model, DA neuronal death; details: 100 μM, adult day 2 baIn11 animals vs 0.25% ethanol
Excerpt: FIG. 8. […] In each experiment, 300 animals were scored to determine the percentage of animals losing at least one dopaminergic neuron in the head. Data are mean±s.e.m. *P<0.05; ***P<0.001, two-sided, unpaired t-test.
FIG. 13. […] In each experiment, 300 animals were scored to determine the percentage of animals losing at least one of the six dopaminergic neurons in the head. Data are mean±s.e.m. ****P<0.001, two-sided, unpaired t-test.
In addition to PME and apoptosis, EndoG was previously shown to play an important role in mediating dopaminergic (DA) neuronal death induced by expression of human α-synuclein, which is widely considered to be a major proponent of Parkinson's disease. However, the mechanism by which EndoG mediates α-synuclein-induced neurodegeneration is unclear. In a C. elegans α-synuclein-based Parkinson's Disease model, co-expression of GFP and human α-synuclein in C. elegans dopaminergic neurons under the control of the promoter of the dat-1 gene, which encodes a dopamine transporter, from an integrated transgene baIn11 (Pdat-1::gfp/Pdat-1::α-synuclein) caused DA neuronal death in 30% of adult baIn11 animals (FIG. 8a). The cps-6(tm3222) mutation blocked DA neuronal death in adult baIn11 animals (FIG. 8a), confirming that CPS-6 is important for α-synuclein-induced DA neuronal death.

[2] = test system: germline tumor in daf-16(mu86); cki-2(ok2105); glp-1(ar202) mutant (ET507); assay: germline tumor model (ET507); details: 100 μM, ET507 at 20° C., vs 0.25% ethanol (FIG. 14)
Method: FIG. 9. Cis-resveratrol inhibits and trans-resveratrol promotes germline tumor formation. Tumor size and tumor occurring frequency of the daf-16(mu86); cki-2(0k2105); glp-1 (ar202) mutant grown at 20° C. and treated with 1% ethanol (Mock), 200 μM cis-resveratrol (Cis), and 200 μM trans-resveratrol (Trans), respectively, are shown. Tumor assays were performed in triplicate with 100 animals per replicate. a, A five-stage classification was created to measure the tumor size in adult day 5 animals under the Normaski optic. Score 1 denotes the normal gonads seen in wild-type animals. Score 5 denotes enlarged gonads full of mitotic germ cells and without any egg or oocyte. Score 2-4 denote partially enlarged gonads. b, Tumor frequency indicates the percentage of animals with enlarged gonads (score 5). Data from three independent biological replicates are shown as mean±SEM. *P<0.05; **P<0.01; ***P<0.001, two-sided, unpaired t-test.
FIG. 14. stabilized cis-resveratrol inhibits germline tumor formation as well as cis-resveratrol. Tumor occurring frequency of the daf-16 (mu86); cki-2 (0k2105); glp-1 (ar202) mutant (ET507) grown at 20° C. and treated with 0.25% ethanol (Mock), 100 μM cis-resveratrol, and 100 μM Stabilized cis-resveratrol, respectively, are shown. Tumor assays were performed in triplicate with 100 animals per replicate. Data are mean±s.e.m. ****P<0.001, two-sided, unpaired t-test
The present inventors tested whether resveratrol isomers affect tumorigenesis in a C. elegans germline tumor model (ET507), in which three cell growth genes, daf-16, cki-2, and glp-1, are mutated, leading to uncontrolled germ cell proliferation and germline tumor.

[3] = toxicity observed in animal assays; details: neuronal death and tumor assays, 100 μM
Excerpt: As described above, Applicant's successfully synthesized a new compound, stabilized cis-resveratrol.

## O=C1CCC(c2ccc(O)cc2)=C1c1cc(O)cc(O)c1 [stabilized cis-resveratrol]
[1]
  effect on α-synuclein-induced DA neuronal death: comparable activity as cis-resveratrol in strongly suppressing
[2]
  germline tumor formation: comparable activity as cis-resveratrol in strongly suppressing
[3]
  toxicity in animal assays: No obvious toxicity was observed
